The source of these data is US6617315B1, “Therapeutic compounds” (priority 1996, dated 2003).

Series [1] deals with MRC5 cells. In words: Compound cytotoxicity on uninfected MRC5 cell monolayers. The class given is cell-based, human. The protocol:
(§1) HCMV strain AD169 was grown on monolayers of human embryonic lung cells (MRC5 cells) in 96 well plates. After infection of the cells at a ratio of approximately 0.01 infectious virus particals per cell, the compounds to be tested were added to selected wells at six different concentrations, each in triplicate The same concentrations of compound were also applied to wells containing monolayers of uninfected cells in order to assess compound cytotoxicity. The plates were incubated for 5 days, and the minimum cytotoxic dose was estimated from microscopic examination. The IC50 for antiviral effect was estimated from measurements of HCMV DNA in each well by blotting and quantitative specific DNA hybridization, similar to the method of Gadler. (Antimicrob. Agents Chemother. 1983, 24, 370-374).

The test system of series [2] is HCMV strain AD169. In words: Human Cytomegalovirus (HCMV) assay, antiviral effect by HCMV DNA hybridization. The format is cell-based. To be noted: HCMV strain AD169 on MRC5 cell monolayers, 96 well plates, 5 days incubation, HCMV DNA by blotting and quantitative specific DNA hybridization. The protocol:
Human Cytomegalovirus (HCMV) Assay
as §1

Series [3] in a line: Compound cytotoxicity on uninfected MRC5 cell monolayers. The format is cell-based, human. To be noted: uninfected MRC5 cell monolayers (human embryonic lung cells); uninfected human embryonic lung cells (MRC5), 5 days incubation, estimated from microscopic examination; read-out: MRC5 tox CC50. The protocol: as §1

For orientation: CC50 means the concentration at which the toxic effect on the cells reaches its halfway point. In general, IC50 refers to the midpoint of a concentration-inhibition curve. “2-(Isopropylamino)-4,5,6-trichloro-1-(beta-L-erythro-pentofuranosyl)-1H-benzimidazole [Example 58]” gave a CC50 in series [1] of 20 µM. This compound also registered an IC50 in series [2] of 0.15 µM.
What is called melting point is the temperature of the solid-liquid transition. On to `C[C@@H]1O[C@H](n2c(NC3CC3)nc3cc(Cl)c(Cl)cc32)[C@@H](O)[C@H]1O` [Example 1, 2-Cyclopropylamino-5,6-dichloro-1-(5-deoxy-beta-L-ribofuranosyl)-1H-benzimidazole], for which the melting point is 186 to 187 °C. Besides, in series [3], the CC50 at 5 days is 100 µM. This compound also had a half-maximal inhibitory concentration (IC50) in series [2] (Human betaherpesvirus 5, 120 h) of 2.1 µM.
The matching figures for `CC(C)Nc1nc2cc(Cl)c(Cl)cc2n1[C@H]1O[C@@H](C)[C@H](O)[C@@H]1O` [Example 3, 2-Isopropylamino-5,6-dichloro-1-(5-deoxy-beta-L-ribofuranosyl)-1H-benzimidazole]: 103 to 105 °C, 30 µM and 0.6 µM.
With `C[C@@H]1O[C@H](n2c(Br)nc3cc(Cl)c(Cl)cc32)[C@@H](O)[C@H]1O` [Example 4, 2-Bromo-5,6-dichloro-1-(5-deoxy-beta-L-ribofuranosyl)-1H-benzimidazole], the melting point is 136 to 138 °C.
The compound `CC(C)Nc1nc2cc(Cl)c(Cl)cc2n1[C@H]1O[C@@H](CCl)[C@H](O)[C@@H]1O` [Example 12, 1-(5-Chloro-5-deoxy-beta-L-ribofuranosyl)-5,6-dichloro-2-isopropylamino-1H-benzimidazole] gave a melting point of 95 to 97 °C. Moreover, the half-maximal cytotoxic concentration (CC50) at 5 days in series [3] was 30 µM. This compound also yielded a 50% inhibitory concentration (IC50) in series [2] (Human betaherpesvirus 5, 120 h) of 1.4 µM.
On the same counts, the results for `CC(C)(C)Nc1nc2cc(Cl)c(Cl)cc2n1[C@H]1O[C@@H](CCl)[C@H](O)[C@@H]1O` [Example 14, 2-tert-Butylamino-1-(5-Chloro-5-deoxy-beta-L-ribofuranosyl)-5,6-dichloro-1H-benzimidazole] are 112 to 114 °C, 30 µM and 1 µM.
The matching figures for `CC(C)Nc1nc2cc(Cl)c(Cl)cc2n1[C@H]1O[C@@H](CO)C[C@@H]1O` [Example 16, 5,6-Dichloro-1-(3-deoxy-beta-L-ribofuranosyl)-2-isopropylamino-1H-benzimidazole]: 153 to 155 °C, 100 µM and 0.2 µM.
In the case of `CC(C)Nc1nc2cc(Cl)c(Cl)cc2n1[C@@H]1C[C@@H](O)[C@H](CO)O1` [Example 19, 5,6-Dichloro-1-(2-deoxy-beta-L-erythro-pentofuranosyl)-2-isopropylamino-1H-benzimidazole], the melting point lay in the range of 114 to 115 °C. Also, the cytotoxic concentration (CC50) at 5 days in series [3] is 100 µM. Further, it took 0.1 µM to reach half-maximal inhibition in series [2] (Human betaherpesvirus 5, 120 h) (IC50).
Turning to `CC(C)Nc1nc2c(Cl)c(Cl)c(Cl)cc2n1[C@H]1O[C@@H](CO)[C@H](O)[C@@H]1O` [Example 31, 2-(Isopropylamino)-4,5,6-trichloro-1-(beta-L-ribofuranosyl)-1H-benzimidazole], the melting point lay within 223 to 224 °C.
Still for that read-out and setting: under `CC(C)Nc1nc2c(Br)c(Cl)c(Cl)cc2n1[C@H]1O[C@@H](CO)[C@H](O)[C@@H]1O` [Example 39, 4-Bromo-5,6-dichloro-2-(isopropylamino)-1-(beta-L-ribofuranosyl)-1H-benzimidazole] stands 221 to 222 °C; under `CC(C)Nc1nc2cc(F)c(F)cc2n1[C@H]1O[C@@H](CO)[C@H](O)[C@@H]1O` [Example 46, 5,6-Difluoro-2-(isopropylamino)-1-(beta-L-ribofuranosyl)-1H-benzimidazole], 156 to 158 °C; under `CC(C)Nc1nc2c(Cl)cccc2n1[C@H]1O[C@@H](CO)[C@H](O)[C@@H]1O` [Example 50, 4-Chloro-2-(isopropylamino)-1-(beta-L-ribofuranosyl)-1H-benzimidazole], 225 to 227 °C.
`CC(C)Nc1nc2c(Cl)cc(Cl)cc2n1[C@H]1O[C@@H](CO)[C@H](O)[C@@H]1O` [Example 53, 4,6-Dichloro-2-(isopropylamino)-1-(beta-L-ribofuranosyl)-1H-benzimidazole]: the melting point fell in the range of 212 to 214 °C. Besides, the 50% cytotoxic concentration (CC50) at 5 days in series [3] is 100 µM. The midpoint of inhibition in series [2] (Human betaherpesvirus 5, 120 h), the IC50, lay at 0.15 µM.
